Results published in US4963569A, “L-654,040, antibacterial agent” (Merck & Co., Inc., priority 1989, dated 1990).
Entries after “also recorded” stand apart in the source; their conditions may differ.

Columns and labels:
[1] = Solubility in water; format: physicochemical; details: solutions in water for dosing
[2] = tested on: Pasteurella multocida (4678); assay: In vivo efficacy in infected mice
[3] = tested on: Bordetella bronchiseptica (3771); assay: In vivo efficacy in infected mice
[4] = tested on: Pasteurella multocida (4678); assay: Combined therapy with erythromycin in infected mice; details: L-654,040 combined with erythromycin, intraperitoneal
[5] = tested on: Staph. aureus 2865; assay: Agar dilution MIC, antagonist-free medium (Table II); details: Staphylococcus aureus 2865, agar dilution
[6] = tested on: E. coli DC2 4353; assay: as above; details: E. coli permeability mutant
[7] = 160 mg/kg×2 intraperitoneal, 0 and 6 hours after infection

C[C@H](CNC(=O)[C@H]1N=C(c2cccc(O)c2O)O[C@@H]1C)C(=O)N[C@@H]1CCCN(O)C1=O [L-654,040, 2-(2,3-dihydroxyphenyl)-4,5-dihydro-N-[3-[(1-hydroxy-2-oxo-3(R)-piperidinyl)amino]-2(R)-methyl-3-oxopropyl]-5R-methyl-4S-oxazolecarboxamide]
solubility (in words) [1]: limited solubility
statistical significance of prolongation of survival ([2]; 160 mg/kg×2 intraperitoneal): statistically significant (0.025<p<0.05)
survival time [2, 7]: prolongation of survival time was observed
survival time (summary) ([2]; intraperitoneal): did prolong the survival time; also recorded: increases survival time
statistical significance of prolonged survival (summary) ([2]; intraperitoneal, two Pasteurella tests): statistically significant at one level in two Pasteurella tests
survival time [3, 7]: prolongation of survival time was observed
survival time (summary) ([3]; intraperitoneal): did prolong the survival time
effectiveness of combined therapy vs erythromycin alone [4]: slightly more effective than erythromycin alone
synergism with erythromycin [4]: not to a degree considered to be synergistic
sensitivity of strain [5]: sensitive
sensitivity of strain ([6]; agar dilution): sensitive
relative activity, acetyl derivative vs parent compound ([6]; from MIC): equal activity
